Experimental data published in patent US11801232B2, “Targeting of ARID1A-deficient cancers by inhibiting de novo pyrimidine synthesis pathway” (YALE UNIVERSITY, priority 2019, dated 2023).
Read-outs that look alike come from different tables or passages of the source.

Tests used:
Test in all cases: Cytotoxicity (SRB) assay with CalcuSyn combination analysis
Format in all cases: cell-based
ES2 shARID1A (b) cells = conditions: Homo sapiens, read-out: Dm
Experimental: (§1) Short Hairpin RNA (shRNA)-Mediated Knockdown and Expression of ARID1A in ovarian and endometrial carcinoma cells. shRNA lentiviral supernatants were produced using standard protocols, as previously described^8. Vectors were transfected into HEK293FT cells using X-tremeGENE 9 DNA Transfection Reagent (from Roche). Retroviral supernatants isolated at 48 h were diluted 1:1 in culture medium and used to infect ARID1A-wildtype ES2 and KLE cell lines. Stably transfected subclones were expanded using puromycin (from Dot Scientific) drug selection. For expression of ARID1A in the ARID1A-mutant HEC-1-A cell line, pCIN4-HA-ARID1A was transfected using X-tremeGENE 9 DNA Transfection Reagent (from Roche), followed by selection with G418 (from Gibco). For expression of ARID1A in the ARID1A-mutant SKOV3 and OVISE cell lines, V5/His-tagged pLenti-puro-LacZ and pLenti-puro-ARID1A were transfected using lentivirus. Lentivirus was produced using HEK293FT cells with the second-generation packaging system pSPAX2 (Addgene plasmid) and pMD2.G (Addgene plasmid). Stably transfected subclones were expanded using puromycin and blasticidin (Gibco) drug selection.
(§2) Cytotoxicity assay. Cells were seeded in 96-well plates, with 2000 cells in 100 μL/well, and cultured for 24 h. The cells were treated with serial dilutions of drugs or without drug for an additional 72 h. Cell number was determined using a sulforhodamine B (SRB) assay, as previously described^23. Briefly, cells were fixed with 20% trichloroacetic acid (TCA), air-dried, and stained with 0.4% SRB dissolved in 1% acetic acid. After washing, protein-bound dye was solubilized with 10 mM unbuffered Tris-base solution (pH 10.5) and detected at 510 nm using a microplate reader. Percentage of cell-growth was calculated using the following formula: % cell growth=[(Absorbance sample)/(Absorbance untreated)]×100
(§3) Using CalcuSyn software (Biosoft), dose-effect curves were generated, and drug concentrations corresponding to a 50% decrease in cell number (IC50) were determined.
(§4) Drug concentrations corresponding to a median effect (Dm) are shown for each treatment; teriflunomide concentration is shown for combination (Combo) treatment at a 10:1 fixed molar ratio of two drugs, teriflunomide and AZD6738. […] Datasets from at least three independent experiments were combined, and each table cell contains the mean value±SD. SCR, ES2-shScrambled. N/A, not applicable. Statistical analysis was carried out by one-way ANOVA with Bonferroni's post-hoc test, and differences were considered significant at **P<0.01 and ***P<0.001 as compared to the ES2 parental group with the same drug treatment.
(§5) Drug concentrations (in μM for teriflunomide, in nM for […]) corresponding to median effect (Dm) are shown for each treatment; teriflunomide concentration is shown for combination (Combo) treatment at a 200:1 fixed molar ratio of the two drugs, teriflunomide and VX-970. […] CIwt<0.8, =0.8 to 1.2, and >1.2 indicates synergism, an additive effect, and antagonism, respectively. CIwt value was calculated using the formula: CIwt=(ED50+2ED75+3ED90)/6. Datasets from at least three independent experiments were combined, and each table cell contains the mean value±SD. Teri, teriflunomide. SCR, ES2-shScrambled. N/A, not applicable. Statistical analysis was carried out by one-way ANOVA with Bonferroni's post-hoc test, and differences were considered significant at ***P<0.001 as compared to the ES2 parental group with the same drug treatment.

ES2 shARID1A (a) cells = conditions: Homo sapiens, read-out: Dm
Experimental: as §1, §2, §3, §4, §5

[1] = tested on: ES2-shScrambled (SCR) cells; conditions: Homo sapiens, read-out: Dm
Experimental: as §1, §2, §3, §4, §5

ES2 cells = conditions: Homo sapiens, ES2 parental, read-out: Dm
Experimental: as §2, with “untreated)]×100 […] Datasets from at least three independent experiments were combined, and each table cell contains the mean value±SD. SCR, ES2-shScrambled. N/A, not applicable. Statistical analysis was carried out by one-way ANOVA with Bonferroni's post-hoc test, and differences were considered significant at **P<0.01 and ***P<0.001 as compared to the ES2 parental group with the same drug treatment. […] CIwt value was calculated using the formula: […] Datasets from at least three independent experiments were combined, and each table cell contains the mean value±SD. Teri, teriflunomide. SCR, ES2-shScrambled. N/A, not applicable. Statistical analysis was carried out by one-way ANOVA with Bonferroni's post-hoc test, and differences were considered significant at ***P<0.001 as compared to the ES2 parental group with the same drug treatment.” for “untreated)]×100”

A2780 cells = conditions: Homo sapiens, Table 4, single drug, median effect, read-out: Dm
Experimental: as §2, §3
(§6) Drug concentrations corresponding to a median effect (Dm) are shown for each treatment; teriflunomide concentration is shown for a combination (Combo) treatment at a 10:1 fixed molar ratio of two drugs, teriflunomide and AZD6738. […] CIwt<0.8, =0.8 to 1.2, and >1.2 indicate synergism, an additive effect, and antagonism, respectively. A CIwt value was calculated using the formula: CIwt=(ED50+2ED75+3ED90)/6. Datasets from at least three independent experiments were combined, and each table cell contains the mean value±SD.

HEC-1A cells = conditions: Homo sapiens, Table 6, single drug, median effect, read-out: Dm
Experimental: as §2, §3
as §6, with “The drug” for “Drug”, “for” for “for a”, “indicates” for “indicate”

JHOC-5 cells = conditions: Homo sapiens, Table 5, single drug, median effect, read-out: Dm
Experimental: as §2, §3
as §6, with “The drug” for “Drug”, “for” for “for a”, “indicates” for “indicate”

[2] = Table 1, single drug, median effect
[3] = ES-2, Table 1, single drug, median effect

SMILES	IC50 (ES2 shARID1A (b) cells; [2])	IC50 (ES2 shARID1A (b) cells; Table 2, teriflunomide alone)	IC50 (ES2 shARID1A (a) cells; [2])	IC50 (ES2 shARID1A (a) cells; Table 2, teriflunomide alone)	IC50 [1, 2]	IC50 ([1]; Table 2, teriflunomide alone)	IC50 (ES2 cells; [3])	IC50 (ES2 cells; ES-2, Table 2, teriflunomide alone)	IC50 (A2780 cells)	IC50 (HEC-1A cells)	IC50 (JHOC-5 cells)
C/C(O)=C(\C#N)C(=O)Nc1ccc(C(F)(F)F)cc1 [Teriflunomide, teriflunomide]	16.8 ± 0.92 µM	15.5 ± 3.11 µM	17.9 ± 1.32 µM	15.6 ± 1.79 µM	28.2 ± 1.59 µM	26.7 ± 1.26 µM	26.4 ± 2.18 µM	29.1 ± 0.54 µM	18.9 ± 1.39 µM	50.5 ± 4.99 µM	25.2 ± 1.85 µM
C[C@@H]1COCCN1c1cc(C2([S@](C)(=N)=O)CC2)nc(-c2cc[nH]c3nccc2-3)n1 [AZD6738]	0.24 ± 0.03 µM	–	0.2 ± 0.01 µM	–	1.18 ± 0.17 µM	–	1.23 ± 0.16 µM	–	5.54 ± 1.06 µM	4.47 ± 0.45 µM	2.91 ± 0.76 µM
